From US8466145B2, “Dipeptidyl peptidase IV inhibitors” (Orchid Chemicals & Pharmaceuticals Limited, priority 2009, dated 2013)

Assays:
[1] = biological target: T1, human recombinant Dipeptidyl peptidase IV enzyme (hrDPP IV) (Homo sapiens, UniProt P27487); experiment: DPP IV assay, cleavage of H-Gly-Pro-AMC by human recombinant DPP-IV enzyme; format: biochemical
T1 construct: purchased R&D systems
How it was run: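 Human recombinant DPP-IV (3 ng) preincubated 60 min at room temperature with compound in 25 mM HEPES, 140 mM NaCl, 1% BSA, pH 7.8, in duplicate. Reaction with H-Gly-Pro-AMC (10 μL of 100 μM) for 20 min, stopped with acetic acid; AMC fluorescence 360/460 nm, IC50 from percent inhibition.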

[2] = biological target: T2, human recombinant Dipeptidyl peptidase 8 enzyme (hrDPP 8) (Homo sapiens, UniProt Q6V1X1); experiment: DPP 8 assay, cleavage of H-Ala-Pro-AFC; format: biochemical; settings: for Selectivity (Fold) DPP 8: selectivity for DPP-IV over DPP 8
T2 construct: purchased R&D systems
Experimental: DPP 8 activity was determined by the cleavage rate of 7-amino 4-fluoromethylcoumarin (AFC) from the substrate H-Ala-Pro-AFC. In brief, the assay was conducted by adding 30 ng of human recombinant Dipeptidyl peptidase 8 enzyme (hrDPP 8, available commercially from R&D systems) in 70 μL of the assay buffer (50 mM TRIS and 5 mM EDTA, pH 7.7) to a 96 well black flat bottom microtitre plate. Test compound was added as 10 μL additions to all wells except blank and total activity wells. After incubation of test substance with enzyme for 30 minutes at room temperature, 10 μL of 100 μM substrate H-Ala-Pro-AFC was added. After mixing, the plate was left for 30 minutes at room temperature. Then the reaction was terminated by addition of 10 μL of 25% Glacial Acetic Acid. Fluorescence was measured using Spectra Max Gemini XS (Molecular Devices, USA) at an excitation filter of 400 nm and emission filter of 505 nm.
Test compound dissolved in DMSO were diluted with assay buffer at different concentrations and tested in duplicates. Percentage inhibition was calculated with respect to total activity. IC50 value was calculated using Prism Software.

[3] = biological target: T3, human recombinant Dipeptidyl peptidase 9 enzyme (hrDPP 9) (Homo sapiens, UniProt Q86TI2); experiment: DPP 9 assay, cleavage of H-Gly-Pro-AMC; format: biochemical; settings: for Selectivity (Fold) DPP 9: selectivity for DPP-IV over DPP 9
T3 construct: purchased R&D systems
Experimental: DPP 9 activity was determined by the cleavage rate of 7-amino 4-methylcoumarin (AMC) from the substrate H-Gly-Pro-AMC. In brief, the assay was conducted by adding 10 ng of human recombinant Dipeptidyl peptidase 9 enzyme (hrDPP 9, available commercially from R&D systems) in 70 μL of the assay buffer (50 mM TRIS and 5 mM EDTA, pH 7.7) to a 96 well black flat bottom microtitre plate. Test compound was added as 10 μL additions to all wells except blank and total activity wells. After incubation of test substance with enzyme for 30 minutes at room temperature, 10 μL of 100 μM substrate H-Gly-Pro-AMC was added. After mixing, the plate was left for 30 minutes at room temperature. Then the reaction was terminated by addition of 10 μL of 25% Glacial Acetic Acid. Fluorescence was measured using Spectra Max Gemini XS (Molecular Devices, USA) at an excitation filter of 360 nm and emission filter of 460 nm.
Test compound dissolved in DMSO were diluted with assay buffer at different concentrations and tested in duplicates. Percentage inhibition was calculated with respect to total activity. IC50 value was calculated by using Prism Software.

C57BL/6 mice = experiment: Oral glucose tolerance test; format: in vivo; settings: compound 10 mg/kg; for Antihyperglycemic activity, reduction in AUC (blood glucose), Time 0.50 hr: glucose 2 g/kg challenge 0.50 hr after compound administration; for Antihyperglycemic activity, reduction in AUC (blood glucose), Time 6.00 hr: glucose 2 g/kg challenge 6.00 hr after compound administration, NA = No activity
Experimental: Effect of compound on glucose tolerance was examined in 7 week old C57BL/6 mice. Animals were kept for 18 h fasting and were challenged with glucose (2 g/kg) 30 min after compound (10 mg/kg) administration. Blood samples for glucose measurement were obtained by tail bleed pre dose and at serial time points after the glucose load (30, 60 and 120 minutes). Blood glucose estimation was done by using ContourTS active strips on glucometer (Bayer). To find the time response on glucose excursion, animals were challenged with glucose at different time point after compound administration (0.5, 2, 4, 6, 8, 12 or 24 hours) at blood glucose was measured at pre (0 minute) and post (30, 60 and 120 minutes) glucose load.
Results of blood glucose were expressed as area under curve (AUC) was calculated using Prism software.

T3 sequence (Q86TI2 whole entry): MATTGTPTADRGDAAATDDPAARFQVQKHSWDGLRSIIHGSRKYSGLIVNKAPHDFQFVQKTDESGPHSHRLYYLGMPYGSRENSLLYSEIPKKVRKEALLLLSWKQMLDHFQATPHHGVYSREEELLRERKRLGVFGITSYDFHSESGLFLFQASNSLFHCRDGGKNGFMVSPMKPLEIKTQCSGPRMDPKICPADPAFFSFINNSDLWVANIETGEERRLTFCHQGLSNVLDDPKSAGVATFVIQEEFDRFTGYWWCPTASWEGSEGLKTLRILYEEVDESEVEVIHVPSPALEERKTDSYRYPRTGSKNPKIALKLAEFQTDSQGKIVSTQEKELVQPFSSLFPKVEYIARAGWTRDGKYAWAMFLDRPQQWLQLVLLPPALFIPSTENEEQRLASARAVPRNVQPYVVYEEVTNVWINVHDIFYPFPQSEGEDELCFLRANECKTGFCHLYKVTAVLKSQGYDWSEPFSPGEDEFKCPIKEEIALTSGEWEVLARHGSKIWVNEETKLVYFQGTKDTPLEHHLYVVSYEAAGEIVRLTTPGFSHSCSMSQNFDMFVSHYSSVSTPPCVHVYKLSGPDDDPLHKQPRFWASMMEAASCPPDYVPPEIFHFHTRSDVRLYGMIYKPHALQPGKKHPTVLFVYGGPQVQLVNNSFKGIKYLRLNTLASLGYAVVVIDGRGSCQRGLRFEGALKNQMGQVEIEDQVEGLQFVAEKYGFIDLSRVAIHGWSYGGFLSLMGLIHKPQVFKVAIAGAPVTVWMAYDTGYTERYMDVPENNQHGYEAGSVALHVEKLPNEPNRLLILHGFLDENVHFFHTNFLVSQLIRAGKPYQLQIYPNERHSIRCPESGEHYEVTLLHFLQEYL
T2 sequence (Q6V1X1 whole entry): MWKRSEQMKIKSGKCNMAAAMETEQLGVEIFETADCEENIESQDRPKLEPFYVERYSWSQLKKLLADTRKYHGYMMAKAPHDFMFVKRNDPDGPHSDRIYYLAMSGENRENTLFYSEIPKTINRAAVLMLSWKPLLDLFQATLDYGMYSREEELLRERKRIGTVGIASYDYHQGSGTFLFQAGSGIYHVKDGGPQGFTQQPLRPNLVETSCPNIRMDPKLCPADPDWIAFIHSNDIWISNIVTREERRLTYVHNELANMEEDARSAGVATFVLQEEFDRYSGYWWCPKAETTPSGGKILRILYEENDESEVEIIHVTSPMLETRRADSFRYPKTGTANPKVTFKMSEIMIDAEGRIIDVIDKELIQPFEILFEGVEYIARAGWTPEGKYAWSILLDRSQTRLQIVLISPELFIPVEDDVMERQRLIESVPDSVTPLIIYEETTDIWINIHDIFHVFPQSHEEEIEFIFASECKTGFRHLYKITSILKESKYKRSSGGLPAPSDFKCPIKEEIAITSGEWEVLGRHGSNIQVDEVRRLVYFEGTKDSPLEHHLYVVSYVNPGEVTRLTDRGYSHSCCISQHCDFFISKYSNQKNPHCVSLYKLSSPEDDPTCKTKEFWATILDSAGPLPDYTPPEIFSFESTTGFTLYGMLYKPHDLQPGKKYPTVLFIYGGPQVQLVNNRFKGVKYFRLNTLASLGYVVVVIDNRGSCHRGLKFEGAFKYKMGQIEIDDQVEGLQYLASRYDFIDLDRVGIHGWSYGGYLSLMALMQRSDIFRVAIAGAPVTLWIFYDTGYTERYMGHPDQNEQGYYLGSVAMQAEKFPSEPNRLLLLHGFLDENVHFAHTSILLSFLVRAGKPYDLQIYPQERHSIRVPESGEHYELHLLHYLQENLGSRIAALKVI
T1 sequence (P27487 whole entry): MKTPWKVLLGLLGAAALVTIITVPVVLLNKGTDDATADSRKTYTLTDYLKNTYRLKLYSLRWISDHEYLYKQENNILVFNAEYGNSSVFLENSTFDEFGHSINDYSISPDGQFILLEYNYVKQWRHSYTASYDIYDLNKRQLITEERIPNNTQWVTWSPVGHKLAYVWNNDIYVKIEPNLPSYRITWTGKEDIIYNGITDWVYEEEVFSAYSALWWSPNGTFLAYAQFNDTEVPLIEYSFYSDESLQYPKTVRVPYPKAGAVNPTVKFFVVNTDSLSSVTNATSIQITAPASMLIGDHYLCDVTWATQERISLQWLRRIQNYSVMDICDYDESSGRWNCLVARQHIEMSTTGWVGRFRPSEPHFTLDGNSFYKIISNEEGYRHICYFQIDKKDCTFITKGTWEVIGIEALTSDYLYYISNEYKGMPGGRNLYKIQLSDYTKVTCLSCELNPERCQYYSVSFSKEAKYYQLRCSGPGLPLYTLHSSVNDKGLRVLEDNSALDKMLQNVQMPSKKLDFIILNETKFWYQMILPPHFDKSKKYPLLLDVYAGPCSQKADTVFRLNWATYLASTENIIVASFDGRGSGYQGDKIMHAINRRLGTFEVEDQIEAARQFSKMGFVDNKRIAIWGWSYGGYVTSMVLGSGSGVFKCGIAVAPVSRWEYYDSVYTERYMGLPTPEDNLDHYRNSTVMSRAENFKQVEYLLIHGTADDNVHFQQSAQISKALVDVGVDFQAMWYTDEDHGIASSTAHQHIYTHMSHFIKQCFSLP

SMILES | IC50 [1] [nM] | Selectivity (Fold) DPP 8 [2] [Fold] | melting point [°C] | Selectivity (Fold) DPP 9 [3] [Fold] | inhibition at 0.3 µM ([1]; 300 nM compound concentration) [%] | Antihyperglycemic activity, reduction in AUC (blood glucose), Time 0.50 hr (C57BL/6 mice) [%] | Antihyperglycemic activity, reduction in AUC (blood glucose), Time 6.00 hr (C57BL/6 mice) [%] | Antihyperglycemic activity, reduction in AUC (blood glucose), Time 12.00 hr (C57BL/6 mice; glucose 2 g/kg challenge 12.00 hr after compound administration) [%] | IC50 ([2]; human recombinant DPP 8, read-out: DPP 8 (cell printed in μM in the Selectivity column)) [µM] | IC50 ([3]; human recombinant DPP 9, read-out: DPP 9 (cell printed in μM in the Selectivity column)) [µM]
Cc1noc([C@@]2(C)CC[C@@H](NCC(=O)N3C[C@@H](F)C[C@H]3C#N)C2(C)C)n1 [Example 73, (2S,4S)-4-Fluoro-1-(2-((1R,3S)-2,2,3-trimethyl-3-(3-methyl-1,2,4-oxadiazol-5-yl)cyclopentylamino)acetyl)pyrrolidine-2-carbonitrile] | 41 | >2300 | 144 to 147 | >150 |  |  |  |  |  | 
Cc1noc([C@]2(C)CC[C@H](NCC(=O)N3C[C@@H](F)C[C@H]3C#N)C2(C)C)n1 [Example 74, (2S,4S)-4-Fluoro-1-(2-((1S,3R)-2,2,3-trimethyl-3-(3-methyl-1,2,4-oxadiazol-5-yl)cyclopentylamino)acetyl)pyrrolidine-2-carbonitrile] | 54.7 | >900 | 137 to 141 | >25 |  |  |  |  |  | 
CC1(C)[C@@H](NCC(=O)N2C[C@@H](F)C[C@H]2C#N)CC[C@@]1(C)c1nc(-c2cccnc2)no1 [Example 68, (2S,4S)-4-Fluoro-1-(2-((1S,3R)-2,2,3-trimethyl-3-(3-(pyridin-3-yl)-1,2,4-oxadiazol-5-yl)cyclopentylamino)acetyl)pyrrolidine-2-carbonitrile] | 40.2 | >250 | 126 to 130 | >15 |  |  |  |  |  | 
CC1(C)[C@H](Cc2noc(CO)n2)CC[C@]1(C)NCC(=O)N1C[C@@H](F)C[C@H]1C#N [Example 60, (2S,4S)-4-Fluoro-1-(2-((1S,3S)-3-((5-(hydroxymethyl)-1,2,4-oxadiazol-3-yl)methyl)-1,2,2-trimethylcyclopentylamino)acetyl)pyrrolidine-2-carbonitrile] | 6.59 | >19000 | 147 to 149 | >7000 | 94.7 | 47.70 | 51.55 | 29.62 |  | 
CC1(C)[C@@H](NCC(=O)N2C[C@@H](F)C[C@H]2C#N)CC[C@@]1(C)c1nc(-c2cnccn2)no1 [Example 72, (2S,4S)-4-Fluoro-1-(2-((1S,3R)-2,2,3-trimethyl-3-(3-(pyrazin-2-yl)-1,2,4-oxadiazol-5-yl)cyclopentylamino)acetyl)pyrrolidine-2-carbonitrile] | 32.3 | >1250 | 65 to 70 | >35 |  |  |  |  |  | 
CC1(C)[C@H](CN2CCCCS2(=O)=O)CC[C@]1(C)NCC(=O)N1C[C@@H](F)C[C@H]1C#N [Example 30, (2S,4S)-1-(2-((1S,3R)-3-[(1,1-Dioxido-1,2-thiazinan-2-yl)methyl]-1,2,2-trimethylcyclopentylamino)acetyl)-4-fluoropyrrolidine-2-carbonitrile] | 7.29 |  | 186 to 190 | >1250 |  |  | 30.90 |  |  | 
CC1(C)[C@H](Cn2cncn2)CC[C@]1(C)NCC(=O)N1C[C@@H](F)C[C@H]1C#N [Example 3, (2S,4S)-1-(2-((1S,3R)-3-((1H-1,2,4-Triazol-1-yl)methyl)-1,2,2-trimethylcyclopentylamino)acetyl)-4-fluoropyrrolidine-2-carbonitrile] | 11 ± 0.16 | >27000 | 132 to 135 | >5000 |  | 53.89 |  |  |  | 
CC1(C)[C@H](NCC(=O)N2C[C@@H](F)C[C@H]2C#N)CC[C@]1(C)c1nc(-c2cccnc2)no1 [Example 69, (2S,4S)-4-Fluoro-1-(2-((1R,3S)-2,2,3-trimethyl-3-(3-(pyridin-3-yl)-1,2,4-oxadiazol-5-yl)cyclopentylamino)acetyl)pyrrolidine-2-carbonitrile] | 18.6 | >1800 | 70 to 75 | >150 |  |  |  |  |  | 
CC1(C)[C@H](CN2CCCS2(=O)=O)CC[C@]1(C)NCC(=O)N1C[C@@H](F)C[C@H]1C#N [Example 29, (2S,4S)-1-(2-((1S,3R)-3-[(1,1-Dioxidoisothiazolidin-2-yl)methyl]-1,2,2-trimethyleyclopentylamino)acetyl)-4-fluoropyrrolidine-2-carbonitrile] | 7.61 | >13000 | 171 to 174 | >1100 |  | 42.52 | 20.21 |  |  | 
CC1(NCC(=O)N2C[C@@H](F)C[C@H]2C#N)CCC(CS(=O)(=O)c2ccc(S(C)(=O)=O)cc2)C1(C)C (stereo in doubt) [Example 45, (2S,4S)-4-Fluoro-1-(2-((1S,3R)-1,2,2-trimethyl-3-((4-(methylsulfonyl)phenylsulfonyl)methyl)cyclopentylamino)acetyl)pyrrolidine-2-carbonitrile] | 59 |  | 211 to 216 |  |  |  |  |  | > 300 | > 300
CC1(C)[C@H](NCC(=O)N2C[C@@H](F)C[C@H]2C#N)CC[C@]1(C)c1nc(-c2ccc(F)cc2)no1 [Example 64, (2S,4S)-4-Fluoro-1-(2-((1R,3S)-3-(3-(4-fluorophenyl)-1,2,4-oxadiazol-5-yl)-2,2,3-trimethylcyclopentylamino)acetyl)pyrrolidine-2-carbonitrile] | 76.1 | >450 |  | >250 |  |  |  |  |  | 
CC1(C)[C@@H](NCC(=O)N2C[C@@H](F)C[C@H]2C#N)CC[C@@]1(C)c1nc(-c2ccncc2)no1 [Example 70, (2S,4S)-4-Fluoro-1-(2-((1S,3R)-2,2,3-trimethyl-3-(3-(pyridin-4-yl)-1,2,4-oxadiazol-5-yl)cyclopentylamino)acetyl)pyrrolidine-2-carbonitrile] | 26.7 | >550 | 149 to 153 | >25 |  |  |  |  |  | 
